Read-outs that look alike come from different tables or passages of the source. Each block holds one molecule with its values, some of them ahead of it.
Columns and labels:
bovine thrombin = target: T1, bovine thrombin (Bos taurus, UniProt P00735); experiment: thrombin assay: hydrolysis of the mimetic as proteolytic substrate; type: biochemical
T1 construct: bovine thrombin (from Sigma); purchased Sigma
Description: (§1) Both the thrombin and Factor VII assays of this experiment were carried out at 37°C using a Hitachi UV/Vis spectrophotometer (model U-3000). Structure (11b) was dissolved in deionized water. The concentration was determined from the absorbance at 342 nm. […] Initial velocities were calculated from the initial linear portion of the reaction progress curve. Kinetic parameters were determined by unweighted nonlinear least-squares fitting of the simple Michaelis-Menten equation to the experimental data using GraFit (Version 3.0, Erithacus Software Limited).
For the thrombin assay, experiments were performed in pH 8.4 Tris buffer (Tris, 0.05M; NaCl, 0.15M). 6.4 NIH units of bovine thrombin (from Sigma) were dissolved into 10 ml of the assay buffer to yield 10 nM thrombin solution. […] The first two minutes of the reactions were recorded for initial velocity determination.
(§2) In both the thrombin and Factor VII assay of this experiment, (D)FPR-PNA was run as a control.

[1] = target: T2, human Factor VIIa (FVIIa) (Homo sapiens, UniProt P08709); experiment: Factor VII assay: hydrolysis of the mimetic as proteolytic substrate; type: biochemical; settings: relative to (D)FPR-PNA control
T2 construct: human Factor VIIa (FVIIa)
Description: as §1
For the Factor VII assay, pH 8.0 Tris buffer (0.05 M Tris, 5 mM CaCl2, 0.15 M NaCl, 0.1% TWEEN 20, 0.1% BSA) was used. 10 µl of 20 µM human Factor VIIa (FVIIa) and 22 µM of human tissue factor (TF) was brought to assay buffer to make 160 nM FVIIa and TF solutions, respectively. […] The initial 3 minutes reaction progress curves were recorded. […] The kcat/KM was calculated from the slope and found to be 17,500 M^-1s^-1.
as §2

bovine factor Xa = target: T3, bovine factor Xa (Bos taurus, UniProt P00743); experiment: Factor X inhibition assay (IC50, Example 4); type: biochemical; settings: Factor X; read-out: IC50
T3 construct: bovine factor Xa (from Sigma); purchased Sigma
Description: All inhibition assays of this experiment were performed at room temperature in 96 well microplates using a Bio-Rad microplate reader (Model 3550). […] This solution (2.05 mM) served as the stock solution for all the inhibition assays. The hydrolysis of chromogenic substrates was monitored at 405 nm. The reaction progress curves were recorded by reading the plates typically 90 times with 30 seconds to 2 minute intervals. The initial rate were determined by unweighted nonlinear least-squares fitting to a first order reaction in GraFit.
In the Factor X assay, buffer and substrate are the same as used for thrombin assay. A 1:100 dilution was made into pH 8.4 Tris buffer to serve as the first point. Seven dilutions with a dilution factor of 2 were made. The assay protocol is the same as for thrombin except 25 nM of bovine factor Xa (from Sigma) in pH 8.4 Tris buffer was used instead of thrombin.

control plasma = experiment: prothrombin time (PT) in control plasma; type: biochemical
Description: Then 200 µl of prewarmed (at 37°C for ∼10 minutes) thromboplastin with calcium (from Sigma) was rapidly added into the plasma sample. […]

tryptase = tryptase inhibition assay (Ki, Example 5); type: biochemical, human lung
Description: (§3) The reaction progress curves were recorded by reading the plates, typically 60 times with 30 second to 2 minute intervals. Initial rates were determined by unweighted nonlinear least-squares fitting to a first order reaction in GraFit (Erithacus Software Limited, London, England).
Tryptase: 0.1 M tris, 0.2 M NaCl, 0.1 mg/ml heparin, pH=8.0 was utilized as buffer. […] From this point seven more dilutions were made for the assay.

Factor X [2] = experiment: Factor X inhibition assay (Ki), source of enzyme not stated; type: biochemical; settings: ratio of Ki of an enzyme to the Ki of thrombin
thioredoxin = experiment: block of insulin disulfide reduction by thioredoxin (turbidity at 650 nm); type: biochemical; settings: 8 µM thioredoxin, 0-100 µM compound, 60 minutes
factor VII = target: T4, factor VII (Homo sapiens, UniProt P08709); experiment: Factor VII inhibition assay (Ki, Example 5); type: biochemical
T4 construct: human Factor VIIa (FVIIa)
T4 sequence (P08709 61-212 limits assumed): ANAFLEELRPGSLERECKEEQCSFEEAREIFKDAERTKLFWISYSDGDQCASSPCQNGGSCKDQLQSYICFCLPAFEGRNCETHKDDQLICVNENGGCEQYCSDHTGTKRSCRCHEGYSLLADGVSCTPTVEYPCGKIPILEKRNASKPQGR
T4 sequence (P08709 213-466 limits assumed): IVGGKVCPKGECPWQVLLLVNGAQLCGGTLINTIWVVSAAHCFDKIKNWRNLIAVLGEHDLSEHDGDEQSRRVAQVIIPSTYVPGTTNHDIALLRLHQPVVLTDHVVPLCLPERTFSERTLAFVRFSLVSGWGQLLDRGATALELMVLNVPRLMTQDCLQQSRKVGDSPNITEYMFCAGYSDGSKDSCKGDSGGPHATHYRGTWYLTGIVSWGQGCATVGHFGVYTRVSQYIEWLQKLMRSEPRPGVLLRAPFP
Description: as §3
From this concentration point seven more sequential dilutions were made for the assay.

factor X [3] = target: T5, factor X (Bos taurus, UniProt P00743); experiment: Factor X inhibition assay (Ki, Example 5), bovine plasma enzyme; type: biochemical; settings: footnote e: bovine plasma
T5 construct: bovine factor Xa (from Sigma); from tissue; host or cells: bovine plasma
Description: All inhibition assays were performed at room temperature in 96 well microplates using Bio-Rad microplate reader (Model 3550). […] The hydrolysis of chromogenic substrates was monitored at 405 nm. The reaction progress curves were recorded by reading the plates, typically 60 times with 30 second to 2 minute intervals. Initial rates were determined by unweighted nonlinear least-squares fitting to a first order reaction in GraFit (Erithacus Software Limited, London, England).
Factor X: Buffer and substrate were the same as used for thrombin assay. A 1:100 dilution was made -in the pH8.0 tris buffer to serve as the first point. Seven more dilutions from the first were made for the assay.

trypsin = target: T6, trypsin (Bos taurus, UniProt P00760); experiment: trypsin inhibition assay (Ki, Example 5); type: biochemical, bovine pancreas
T6 construct: from tissue; host or cells: bovine pancreas
T6 sequence (P00760 24-246): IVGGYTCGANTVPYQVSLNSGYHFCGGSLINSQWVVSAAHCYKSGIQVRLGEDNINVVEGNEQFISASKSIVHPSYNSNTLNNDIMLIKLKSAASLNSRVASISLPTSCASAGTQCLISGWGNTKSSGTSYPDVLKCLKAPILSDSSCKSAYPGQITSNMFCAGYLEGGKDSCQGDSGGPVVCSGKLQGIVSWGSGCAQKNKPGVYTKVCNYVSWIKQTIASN
Description: as §3

thrombin = thrombin (Bos taurus, UniProt P00735); experiment: thrombin inhibition assay (Ki, Example 5); type: biochemical, bovine plasma; parameters: Thrombin: N-p-tosyl-Gly-Pro-Arg-pNA (from Sigma) was used at 0.5 mM concentration; from tissue; host or cells: bovine plasma
Description: as §3
Seven sequential dilutions were made from the first point for the assay.

t-PA = t-PA (Homo sapiens, UniProt P00750); experiment: t-PA inhibition assay (Ki, Example 5); type: biochemical
Description: as §3

APC = target: T7, APC (Homo sapiens, UniProt P04070); experiment: activated protein C inhibition assay (Ki, Example 5); type: biochemical, human plasma
T7 construct: from tissue; host or cells: human plasma

Factor XI = Factor XI (Homo sapiens, UniProt P03951); experiment: Factor XI inhibition assay (Ki); type: biochemical
[4] = target: thrombin-thrombomodulin complex (Bos taurus, UniProt P00735); experiment: thrombin-thrombomodulin complex inhibition assay (Ki); type: biochemical; settings: thrombin preincubated with 4 nM thrombomodulin, read-out: Ki (M) T.T.C.
Plasmin = Plasmin (Bos taurus, UniProt P06868); experiment: plasmin inhibition assay (Ki, Example 5); type: biochemical, bovine plasma; parameters: Plasmin: Buffer (see thrombin assay); from tissue; host or cells: bovine plasma
Description: as §3

thermolysin = thermolysin (Bacillus thermoproteolyticus, UniProt P00800); experiment: thermolysin inhibition assay; type: biochemical
leucine aminopeptidase M = target: T8, leucine aminopeptidase M (Sus scrofa, UniProt P15145); experiment: leucine aminopeptidase M inhibition assay; type: biochemical
T8 construct: purchased Sigma

papain = papain (Carica papaya, UniProt P00784); experiment: papain inhibition assay
[5] = substrate hydrolysis, pH 8.4 Tris buffer, 37°C

T5 sequence (P00743 41-180 limits assumed): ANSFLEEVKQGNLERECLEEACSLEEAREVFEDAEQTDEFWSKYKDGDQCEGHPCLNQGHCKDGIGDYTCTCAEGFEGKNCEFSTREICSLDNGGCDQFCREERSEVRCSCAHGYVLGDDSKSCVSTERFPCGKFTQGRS
T5 sequence (P00743 234-492 limits assumed): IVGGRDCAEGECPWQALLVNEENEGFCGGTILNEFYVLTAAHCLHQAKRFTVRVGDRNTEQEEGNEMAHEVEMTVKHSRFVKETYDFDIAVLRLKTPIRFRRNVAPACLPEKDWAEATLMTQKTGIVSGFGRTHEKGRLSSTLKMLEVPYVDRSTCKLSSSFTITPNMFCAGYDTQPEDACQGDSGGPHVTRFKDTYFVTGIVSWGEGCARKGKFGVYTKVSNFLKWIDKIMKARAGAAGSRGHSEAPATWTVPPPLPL
Sequence of Factor XI (P03951 388-625 limits assumed): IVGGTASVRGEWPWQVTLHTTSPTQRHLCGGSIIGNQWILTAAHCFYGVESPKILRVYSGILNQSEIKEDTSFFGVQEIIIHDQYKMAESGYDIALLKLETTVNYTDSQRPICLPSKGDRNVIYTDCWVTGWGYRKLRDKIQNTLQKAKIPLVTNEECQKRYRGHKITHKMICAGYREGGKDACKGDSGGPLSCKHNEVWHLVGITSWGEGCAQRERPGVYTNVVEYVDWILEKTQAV
Sequence of Factor XI (P03951 19-387 limits assumed): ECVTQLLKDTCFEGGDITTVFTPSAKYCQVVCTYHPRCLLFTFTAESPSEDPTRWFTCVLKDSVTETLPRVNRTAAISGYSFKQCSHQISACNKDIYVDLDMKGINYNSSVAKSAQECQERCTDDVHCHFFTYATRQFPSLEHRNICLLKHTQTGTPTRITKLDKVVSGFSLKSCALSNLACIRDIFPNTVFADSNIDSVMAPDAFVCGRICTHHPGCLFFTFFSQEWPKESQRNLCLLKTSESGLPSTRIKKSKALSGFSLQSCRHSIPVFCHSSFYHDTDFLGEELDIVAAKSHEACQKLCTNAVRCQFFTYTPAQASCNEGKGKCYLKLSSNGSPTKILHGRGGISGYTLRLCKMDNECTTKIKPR
T2 sequence (P13726 33-295 partner, one chain of several): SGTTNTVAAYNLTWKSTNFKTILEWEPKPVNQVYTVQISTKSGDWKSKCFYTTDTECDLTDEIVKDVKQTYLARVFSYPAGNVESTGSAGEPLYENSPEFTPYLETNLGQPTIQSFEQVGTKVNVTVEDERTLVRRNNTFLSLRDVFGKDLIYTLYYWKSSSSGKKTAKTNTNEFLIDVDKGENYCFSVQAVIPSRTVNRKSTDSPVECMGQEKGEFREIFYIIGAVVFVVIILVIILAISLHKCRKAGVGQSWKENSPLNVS
Sequence of Plasmin (P06868 104-583 limits assumed): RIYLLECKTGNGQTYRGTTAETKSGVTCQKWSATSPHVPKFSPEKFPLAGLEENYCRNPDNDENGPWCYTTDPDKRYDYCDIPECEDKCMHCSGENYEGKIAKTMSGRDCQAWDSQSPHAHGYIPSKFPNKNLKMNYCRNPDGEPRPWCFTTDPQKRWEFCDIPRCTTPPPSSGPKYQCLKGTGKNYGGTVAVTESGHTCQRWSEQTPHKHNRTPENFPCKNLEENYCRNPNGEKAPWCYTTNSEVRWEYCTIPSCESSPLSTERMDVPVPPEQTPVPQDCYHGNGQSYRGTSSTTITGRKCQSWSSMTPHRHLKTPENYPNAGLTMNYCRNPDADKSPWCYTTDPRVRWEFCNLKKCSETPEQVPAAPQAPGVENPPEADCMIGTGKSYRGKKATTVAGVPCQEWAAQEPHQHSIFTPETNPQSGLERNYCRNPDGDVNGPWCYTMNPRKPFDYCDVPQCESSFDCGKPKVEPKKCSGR
Sequence of Plasmin (P06868 584-812 limits assumed): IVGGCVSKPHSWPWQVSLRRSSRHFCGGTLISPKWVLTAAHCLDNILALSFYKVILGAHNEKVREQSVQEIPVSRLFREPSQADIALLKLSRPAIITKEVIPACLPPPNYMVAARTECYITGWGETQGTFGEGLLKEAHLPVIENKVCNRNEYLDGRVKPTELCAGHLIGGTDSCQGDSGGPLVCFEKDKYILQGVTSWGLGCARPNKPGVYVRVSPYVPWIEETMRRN
Sequence of t-PA (P00750 36-562): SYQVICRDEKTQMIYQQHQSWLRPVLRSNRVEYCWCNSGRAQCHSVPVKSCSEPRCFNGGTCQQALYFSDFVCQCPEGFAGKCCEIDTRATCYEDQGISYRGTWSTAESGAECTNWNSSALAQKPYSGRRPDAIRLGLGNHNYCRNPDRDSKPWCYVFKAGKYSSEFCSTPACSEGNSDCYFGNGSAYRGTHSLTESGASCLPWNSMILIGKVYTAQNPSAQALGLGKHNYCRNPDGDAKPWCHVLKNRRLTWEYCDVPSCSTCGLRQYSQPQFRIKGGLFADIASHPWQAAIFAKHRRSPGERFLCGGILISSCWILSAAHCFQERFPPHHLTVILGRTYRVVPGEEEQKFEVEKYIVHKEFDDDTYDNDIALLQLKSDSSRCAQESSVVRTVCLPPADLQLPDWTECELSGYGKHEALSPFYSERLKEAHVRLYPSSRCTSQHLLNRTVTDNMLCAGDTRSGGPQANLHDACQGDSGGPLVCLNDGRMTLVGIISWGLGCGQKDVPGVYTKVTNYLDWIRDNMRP
T3 sequence (P00743 41-180 limits assumed): as the sequence (P00743 41-180 limits assumed) above
T3 sequence (P00743 234-492 limits assumed): as the sequence (P00743 234-492 limits assumed) above
Sequence of papain (P00784 134-345): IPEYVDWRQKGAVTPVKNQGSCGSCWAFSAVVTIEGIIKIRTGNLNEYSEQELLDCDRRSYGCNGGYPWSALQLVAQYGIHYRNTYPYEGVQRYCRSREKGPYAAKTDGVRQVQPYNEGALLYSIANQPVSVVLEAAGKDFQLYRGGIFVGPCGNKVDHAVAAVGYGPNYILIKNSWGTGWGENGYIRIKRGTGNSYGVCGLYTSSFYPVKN
T7 sequence (P04070 43-197 limits assumed): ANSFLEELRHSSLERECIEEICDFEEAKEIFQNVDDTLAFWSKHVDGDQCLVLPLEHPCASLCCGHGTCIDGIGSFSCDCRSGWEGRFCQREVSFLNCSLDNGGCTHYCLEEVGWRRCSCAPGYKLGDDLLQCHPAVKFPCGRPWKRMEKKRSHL
T7 sequence (P04070 212-461 limits assumed): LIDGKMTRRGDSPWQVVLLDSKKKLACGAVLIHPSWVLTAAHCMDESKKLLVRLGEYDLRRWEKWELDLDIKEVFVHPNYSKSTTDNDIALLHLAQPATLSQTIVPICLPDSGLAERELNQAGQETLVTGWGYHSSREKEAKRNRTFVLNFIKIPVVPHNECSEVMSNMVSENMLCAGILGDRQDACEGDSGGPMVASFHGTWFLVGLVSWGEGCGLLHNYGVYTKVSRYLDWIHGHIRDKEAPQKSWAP
T8 sequence (P15145 whole entry): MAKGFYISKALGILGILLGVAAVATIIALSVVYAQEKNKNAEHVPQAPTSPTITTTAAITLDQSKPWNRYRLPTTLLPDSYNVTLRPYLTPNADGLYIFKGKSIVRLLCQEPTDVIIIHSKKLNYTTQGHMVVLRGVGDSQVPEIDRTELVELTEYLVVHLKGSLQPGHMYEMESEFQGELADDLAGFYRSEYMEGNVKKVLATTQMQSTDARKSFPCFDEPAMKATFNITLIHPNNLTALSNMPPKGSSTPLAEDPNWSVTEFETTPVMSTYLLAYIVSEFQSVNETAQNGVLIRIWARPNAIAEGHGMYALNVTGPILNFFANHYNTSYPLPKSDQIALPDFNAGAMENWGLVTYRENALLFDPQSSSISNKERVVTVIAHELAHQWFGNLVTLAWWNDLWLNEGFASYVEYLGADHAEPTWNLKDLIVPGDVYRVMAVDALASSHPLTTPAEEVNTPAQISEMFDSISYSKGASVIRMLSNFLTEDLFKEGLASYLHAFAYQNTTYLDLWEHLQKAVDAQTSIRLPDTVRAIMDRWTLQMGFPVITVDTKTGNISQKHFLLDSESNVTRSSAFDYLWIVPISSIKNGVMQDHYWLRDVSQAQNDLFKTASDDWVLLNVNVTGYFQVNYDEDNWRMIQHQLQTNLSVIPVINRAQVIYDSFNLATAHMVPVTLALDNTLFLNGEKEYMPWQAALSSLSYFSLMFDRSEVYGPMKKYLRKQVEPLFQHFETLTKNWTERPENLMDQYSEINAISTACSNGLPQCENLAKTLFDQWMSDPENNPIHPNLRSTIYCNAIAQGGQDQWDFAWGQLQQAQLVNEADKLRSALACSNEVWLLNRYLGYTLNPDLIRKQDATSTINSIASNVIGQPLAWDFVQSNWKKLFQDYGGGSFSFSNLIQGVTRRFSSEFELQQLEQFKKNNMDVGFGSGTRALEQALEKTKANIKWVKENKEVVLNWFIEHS
Sequence of thermolysin (P00800 233-548, species assumed): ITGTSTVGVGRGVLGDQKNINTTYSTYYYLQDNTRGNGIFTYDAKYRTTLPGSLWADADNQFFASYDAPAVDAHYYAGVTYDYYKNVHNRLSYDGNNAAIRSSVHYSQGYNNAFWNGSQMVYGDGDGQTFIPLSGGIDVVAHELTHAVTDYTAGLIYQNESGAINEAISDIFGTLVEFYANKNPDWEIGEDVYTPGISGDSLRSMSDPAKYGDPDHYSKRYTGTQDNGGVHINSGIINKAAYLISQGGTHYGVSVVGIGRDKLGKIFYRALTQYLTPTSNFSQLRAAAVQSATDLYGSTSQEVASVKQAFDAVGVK

SMILES: N=C(N)NCCC[C@H](NC(=O)[C@@H]1CCN2CC[C@@](N)(Cc3ccccc3)C(=O)N12)C(=O)Nc1ccc([N+](=O)[O-])cc1 [(11b)]
Km (bovine thrombin; [5]): 3 µM | kcat (bovine thrombin; [5]): 50 s⁻¹ | Activity compared to the control (bovine thrombin; thrombin, relative to (D)FPR-PNA control): 0.76 | Activity compared to the control [1]: 1.38

SMILES: N=C(N)NCCCC(NC(=O)C1CCC2CCC(N)(Cc3ccccc3)C(=O)N21)C(=O)c1nc2ccccc2s1 (stereo not drawn) [(29b)]
Selectivity (tryptase; Tryptase, ratio of Ki of an enzyme to the Ki of thrombin): 106 | Ki (tryptase; tryptase, read-out: Ki): 9e-09 M | Selectivity (Factor X [2]): 227

SMILES: N=C(N)NCCC[C@H](NC(=O)[C@@H]1CCCN1C(=O)[C@H](N)Cc1ccccc1)C(=O)CCl [PPACK, (D)FPR-CH2Cl, reference compound]
PT (control plasma; Concentration 500 pM): 15 s | PT (control plasma; Concentration 1 nM): 18 s | PT (control plasma; Concentration 10 nM): 22 s | PT (control plasma; Concentration 20 nM): 25 s | PT (control plasma; Concentration 40 nM): 28 s | PT (control plasma; Concentration 60 nM): 30 s | PT (control plasma; Concentration 80 nM): 31 s

SMILES: CC1=C2[C@H]3OC(=O)[C@@H](C)[C@@H]3CC[C@@]2(C)C=CC1=O [Santonin]
thioredoxin-induced turbidity of insulin (thioredoxin): did not block thioredoxin-induced turbidity of insulin

SMILES: N=C(N)NCCCC(NC(=O)C1CCC2CCC(N)(Cc3ccccc3)C(=O)N21)C(=O)c1nc2ccccc2s1 (stereo not drawn) [Structure (29b)]
Ki (tryptase; read-out: Ki (M) Tryptase): 9e-09 M

SMILES: N=C(N)NCCC[C@H](NC(=O)[C@@H]1CCN2CC[C@@](N)(Cc3ccccc3)C(=O)N12)C(=O)C(=O)NCCc1ccccc1 [Structure (35)]
Ki (factor VII): 16.4 nM | Ki (factor X [3]): 345 nM | Ki (trypsin): 0.027 nM

SMILES: COc1ccc(CCNC(=O)C(=O)[C@H](CCCNC(=N)N)NC(=O)[C@@H]2CCN3CC[C@@](N)(Cc4ccccc4)C(=O)N23)cc1 [Structure (41)]
Ki (thrombin): 0.45 nM

SMILES: N=C(N)NC(=O)NC[C@H](NC(=O)[C@@H]1CCN2CC[C@@](N)(Cc3ccccc3)C(=O)N12)C(=O)c1nc2ccccc2s1 [Structure (51)]
Ki (factor VII): 4260 nM | Ki (trypsin): 37.9 nM | Ki (Factor XI): 1730 nM | Ki (thrombin): 7.25 nM

SMILES: COC(=O)c1cccc2c1C(=O)N([C@@H](CC(C)C)C(=O)NO)C2=O [Structure (234)]
Ki (thermolysin): 6000 nM | Ki (leucine aminopeptidase M): 11000 nM | IC50 (papain): 8000 nM

Further lines, with some results ahead:

IC50 (bovine factor Xa): 385 ± 17 nM
SMILES: N=C(N)NCCC[C@H](NC(=O)[C@@H]1CCN2CC[C@@](N)(Cc3ccccc3)C(=O)N12)C(=O)CCl [(13b)]
PT (control plasma; Concentration 1 pM): 13 s | PT (control plasma; Concentration 10 pM): 17 s | PT (control plasma; Concentration 50 pM): 18 s | PT (control plasma; Concentration 100 pM): 23 s | PT (control plasma; Concentration 200 pM): 24 s | PT (control plasma; Concentration 500 pM): 27 s | PT (control plasma; Concentration 1 nM): 30 s | PT (control plasma; Concentration 10 nM): 31 s | PT (control plasma; Concentration 30 nM): 31 s | PT (control plasma; Concentration 50 nM): 30 s | PT (control plasma; Concentration 80 nM): 33 s

Ki (trypsin): 0.0773 nM | Ki (thrombin): 0.0732 nM
SMILES: N=C(N)NCCC[C@H](NC(=O)[C@@H]1CCN2CC[C@@](N)(Cc3ccccc3)C(=O)N12)C(=O)C(=O)NCc1ccccc1 [Structure (37)]

Ki (thrombin): 0.31 nM
SMILES: N=C(N)NCCC[C@H](NC(=O)[C@@H]1CCN2CC[C@@](N)(Cc3ccccc3)C(=O)N12)C(=O)C(=O)NCCc1ccc(Cl)cc1 [Structure (39)]

Ki (factor VII): 29600 nM | Ki (t-PA): 17200 nM | Ki (APC): 25600 nM | Ki (tryptase; read-out: Ki (M) Tryptase): 1.65e-06 M | Ki (trypsin): 52.4 nM | Ki (Factor XI): 1240 nM | Ki [4]: 6.9e-09 M | Ki (Plasmin): 23800 nM | Ki (thrombin): 5.4 nM
SMILES: COC(=O)c1c[nH]c(C(=O)[C@H](CCCNC(=N)N)NC(=O)[C@@H]2CCN3CC[C@@](N)(Cc4ccccc4)C(=O)N23)n1 [Structure (45)]

Ki (factor VII): 968 nM | Ki (factor X [3]): 1500 nM | Ki (trypsin): 1.9 nM
SMILES: N=C(N)NCCC[C@H](NC(=O)[C@@H]1CCN2CC[C@@](N)(Cc3ccccc3)C(=O)N12)C(=O)c1nccs1 [Structure (47)]

From patent publication EP1053246B1, “BETA-SHEET MIMETICS AND METHODS RELATING TO THE USE THEREOF” (MOLECUMETICS, LTD., priority 1998, dated 1999)
